{"source": "patent US20060127506A1", "about": "“Compositions of S-adenosyl-L-methionine” (priority 2004, published 2006)", "origin": "cited, not measured here", "key": {"[1]": {"tested_on": "S-adenosyl-L-methionine-dependent methyltransferases"}, "[2]": {"settings": "optical purity of 97-100% (Berna et al, US 20020010147)"}, "[3]": {"tested_on": "nucleolar 2-O-methyltransferase", "settings": "(S,S) vs (R,S) diastereomer"}, "[4]": {"settings": "oral; alcoholic liver cirrhosis; compared with placebo treated group"}, "beta-adrenergic": {"tested_on": "beta-adrenergic", "settings": "L-form vs D-enantiomer"}}, "data": [{"smiles": "C[S@@+](CC[C@@H](N)C(=O)O)C[C@H]1O[C@@H](n2cnc3c(N)ncnc32)[C@H](O)[C@@H]1O", "note": "[(R,S)-S-adenosyl-L-methionine]", "values": [{"measurement": "inhibition of enzyme-catalyzed transmethylation reactions", "setting": "[1]", "value": "potent inhibitor"}, {"measurement": "extent of binding relative to (S,S)-S-adenosyl-L-methionine", "setting": "Other methyltransferases", "value": "to the same extent"}]}, {"smiles": "C[S@@+](CC[C@H](N)C(=O)O)C[C@H]1O[C@@H](n2cnc3c(N)ncnc32)[C@H](O)[C@@H]1O", "note": "[(S,S)-S-adenosyl-L-methionine]", "values": [{"measurement": "time for which optical purity is sustained before epimerization begins again", "setting": "[2]", "value": "≤ 4", "unit": "months"}, {"measurement": "tightness of enzyme binding relative to (R,S)-S-adenosyl-L-methionine", "setting": "[3]", "value": 10, "unit": "fold"}]}, {"smiles": "C[S+](CC[C@H](N)C(=O)[O-])C[C@H]1O[C@@H](n2cnc3c(N)ncnc32)[C@H](O)[C@@H]1O", "note": "(stereo partly drawn) [S-adenosyl-L-methionine]", "values": [{"measurement": "overall mortality and/or progression to liver transplant", "setting": "[4]", "value": 12, "unit": "%"}]}, {"smiles": "CC(C)NCC(O)COc1cccc2ccccc12", "note": "(stereo not drawn) [propranolol]", "values": [{"measurement": "potency of L-form relative to D-enantiomer", "setting": "beta-adrenergic", "value": 100, "unit": "times"}]}]}
